In patent publication US12467917B2, “Reconstructing human early embryogenesis in vitro with pluripotent stem cells” (California Institute of Technology, priority 2021, dated 2025):

Tests used:
Type in all cases: cell-based, human
hEPSCs = test: Screening of growth factors and inhibitors in hEPSC 3D culture; conditions: grown for 5 days without the named substance (condition 2 / condition 3)
Experimental: Next, various growth factors, cytokines, and small molecules were screened at widely adopted concentrations, to identify conditions facilitating cavity and early-lineage formation in these structures (FIG. 7A-FIG. 7E). […] Additionally, the cells were pulsed with the ALK5 kinase inhibitor A83-01 (2 μM) to promote TE differentiation for the first 48h of 3D culture, and this inhibitor was removed after this time to avoid a complete loss in pluripotency. Concomitantly, the concentration of FGF2 was decreased by half (20 ng/ml) for the same purpose. Using this optimized condition, the emergence of cavitated structures was observed, 3 to 4 days after cell seeding (FIG. 1D).
Post incubation on gelatin plates, cells were counted using a haemocytometer and a total of 7200 hEPSCs was added to 1 mL of media composed of 50% IVF media (Continuous Single Culture-NX Complete (CSCM-NXC)) (90168, FUJIFILM), 25% hEP media, and 25% hTS media. This media was also supplemented with CHIR99021 (2 μM), Y27632 (5 μM), BMP4 (20 ng/mL), FGF2 (40 ng/mL), and A83-01 (2 μM). Cell suspensions were added dropwise to the Aggrewells. All wells without cells were filled with 1 mL PBS to humidify the local atmosphere to minimize evaporation. The AggreWell plate (24-well, 1200 Aggrewell format) was then centrifuged for 3 min at 100 g, and placed at 37° C. under hypoxic conditions (5% CO2 and 5% O2). […]

hEPSC aggregates = test: PLC inhibition in hEPSC 3D cultures: immunofluorescence quantification of nuclear GATA3 and apical PARD6; conditions: hEPSC 3D cultures treated with 2 μM and 3 μM, vs control without inhibitor
Experimental: The PLC-Protein Kinase C (PKC) pathway controls cellular polarisation at early stages of mouse embryo development. hEPSC 3D cultures were treated with 2 μM and 3 μM of the PLC inhibitor, U73122. […] To confirm the relationship between polarisation and outer cell commitment, siRNA transfection was used to knockdown (KD) PLCB1 in order to deplete PLC activity in cells during 3D aggregation (FIG. 2F). The depletion of PLC activity was confirmed by qRT-PCR to confirm that RNAi depletion of PLCB1 was effective (FIG. 8C).
Post incubation on gelatin plates, cells were counted using a haemocytometer and a total of 7200 hEPSCs was added to 1 mL of media composed of 50% IVF media (Continuous Single Culture-NX Complete (CSCM-NXC)) (90168, FUJIFILM), 25% hEP media, and 25% hTS media. This media was also supplemented with CHIR99021 (2 μM), Y27632 (5 μM), BMP4 (20 ng/mL), FGF2 (40 ng/mL), and A83-01 (2 μM). […]
Fluorescence images were acquired with an inverted Leica SP8 confocal microscope (Leica Microsystems), using a Leica Fluotar VISIR 0.95 NA 25× objective. […] Digital quantifications and immunofluorescence signal intensity graphs were obtained using Fiji software.
Apical enrichment analysis: F-actin and PARD6 polarisation were measured in a single focal plane, by taking the middle plane of the aggregate. […] The apical/basal signal intensity ratio was calculated as: I (apical)/I (basal). […]

hEP-structures = test: Frequency of cavitated structures in WNT3A-supplemented 3D culture; conditions: day 6; WNT3A at 25 or 50 ng/mL added to culture media; vs control
Experimental: Post incubation on gelatin plates, cells were counted using a haemocytometer and a total of 7200 hEPSCs was added to 1 mL of media composed of 50% IVF media (Continuous Single Culture-NX Complete (CSCM-NXC)) (90168, FUJIFILM), 25% hEP media, and 25% hTS media. This media was also supplemented with CHIR99021 (2 μM), Y27632 (5 μM), BMP4 (20 ng/mL), FGF2 (40 ng/mL), and A83-01 (2 μM). Cell suspensions were added dropwise to the Aggrewells. All wells without cells were filled with 1 mL PBS to humidify the local atmosphere to minimize evaporation. The AggreWell plate (24-well, 1200 Aggrewell format) was then centrifuged for 3 min at 100 g, and placed at 37° C. under hypoxic conditions (5% CO2 and 5% O2). After 48h, media was removed from wells and replaced with fresh culture media as described above, although FGF2 concentration was lowered to 20 ng/ml and A83-01 was omitted. Cells were left to grow for an additional 48-72h until proper morphology was observed, at which point structures were fixed for immunostaining or transferred to IVC media (see below) for mimicking development beyond implantation stages.
Following completion of any given aggregation experiment (from day 4 to 6), all cystic structures clearly displaying a cavity were included in further analyses. Non-cavitated structures were excluded from downstream analyses.

## Cc1c[nH]c(-c2cnc(NCCNc3ccc(C#N)cn3)nc2-c2ccc(Cl)cc2Cl)n1 [CHIR99021]
hEPSCs
  cell survival in media without the substance: failure of cell survival

## COc1ccc2c(c1)CC[C@@H]1[C@@H]2CC[C@]2(C)[C@@H](NCCCCCCN3C(=O)C=CC3=O)CC[C@@H]12 [U73122]
hEPSC aggregates; normalized to DAPI
  nuclear GATA3 signal intensity: reduction
hEPSC aggregates
  apical enrichment of PARD6: decrease

## C[C@@H](N)[C@H]1CC[C@H](C(=O)Nc2ccncc2)CC1.Cl.Cl [Y-27632, trans-4-[(R)-1-Aminoethyl]-N-4-pyridinylcyclohexanecarboxamide dihydrochloride]
hEPSCs
  cell survival in media without the substance: failure of cell survival

B1: WNT3A: Wnt3a recombinant protein, WNT signaling pathway activator added to the culture media (protein, UniProt P56704 19-352, looked up)
Protein Wnt-3a: SYPIWWSLAVGPQYSSLGSQPILCASIPGLVPKQLRFCRNYVEIMPSVAEGIKIGIQECQHQFRGRRWNCTTVHDSLAIFGPVLDKATRESAFVHAIASAGVAFAVTRSCAEGTAAICGCSSRHQGSPGKGWKWGGCSEDIEFGGMVSREFADARENRPDARSAMNRHNNEAGRQAIASHMHLKCKCHGLSGSCEVKTCWWSQPDFRAIGDFLKDKYDSASEMVVEKHRESRGWVETLRPRYTYFKVPTERDLVYYEASPNFCEPNPETGSFGTRDRTCNVSSHGIDGCDLLCCGRGHNARAERRREKCRCVFHWCCYVSCQECTRVYDVHTCK
hEP-structures
  yield (frequency) of cavitated structures: did not make any significant difference
